Laboratory results as given in patent publication US20220332758A1, “PEPTIDE-BASED COMPOSITIONS AND METHODS FOR TREATING ALZHEIMER'S DISEASE” (Board of Regents, The Universityof Texas System, priority 2019, published 2022).
Entries after “also recorded” stand apart in the source; their conditions may differ.

Key:
[1] = molecular target: T1, latent 20S core proteasome, T-L peptidase (Homo sapiens, UniProt P25787+P60900); assay: Trypsin-like (T-L) peptidase activity of the core proteasome; assay type: biochemical
T1 construct: purified from erythrocytes; purchased Boston Biochem, Inc. or Enzo Life Sciences, Inc; host or cells: human erythrocytes
Protocol: Determination of Proteasome Activity. Human housekeeping core (20S) proteasome purified from erythrocytes was purchased from Boston Biochem, Inc. (Cambridge, Mass.) or from Enzo Life Sciences, Inc. (Farmingdale, N.Y.). Multiple batches of the proteasomes were used and performed reproducibly. The stock proteasome was diluted to 0.2 mg/mL working solution in “dilution buffer” (50 mM Tris/HCl, pH 8, 20% glycerol). The following model peptide substrates, releasing fluorescent 7-amino-4-methylcoumarin (AMC) reporter group after cleavage, were used: succinyl-LeuLeuValTyr-AMC (SEQ ID NO: 14) (for the ChT-L peptidase; SucLLVY-AMC; Bachem Bioscience Inc., Philadelphia, Pa.), butoxycarbonyl-LeuArgArg-AMC (T-L; Bachem Bioscience Inc., Philadelphia, Pa.) and carbobenzoxy-LeuLeuGlu-AMC (PGPH; Enzo Life Sciences Inc., Farmingdale, N.Y.). […] After mixing, the plate was transferred to a Fluoroskan Ascent plate reader (Thermo Fisher Scientific Inc., Waltham, Mass.) for 1 h (37° C.), with fluorescence readouts once per minute. […] The reaction rates were calculated from a linear segment of kinetic curves constructed from measurements in 1-min intervals. Reaction rates were calculated using a linear fit performed with the Slope Analyser and Enzyme Kinetics applications launched within Origin Pro 2019 (OriginLab Corporation, Northampton, Mass.). […]

[2] = molecular target: T2, latent human 20S proteasome (Homo sapiens, UniProt P25787+P60900); assay: Chymotrypsin-like (ChT-L) activity of purified latent human 20S proteasome, Suc-LLVY-AMC substrate; assay type: biochemical; conditions: for activation of ChT-L activity of 20S proteasome (in words): in vitro, latent human 20S
T2 construct: purified from erythrocytes; purchased Boston Biochem, Inc. or Enzo Life Sciences, Inc; host or cells: human erythrocytes
Protocol: Determination of Proteasome Activity. Human housekeeping core (20S) proteasome purified from erythrocytes was purchased from Boston Biochem, Inc. (Cambridge, Mass.) or from Enzo Life Sciences, Inc. (Farmingdale, N.Y.). […] The stock proteasome was diluted to 0.2 mg/mL working solution in “dilution buffer” (50 mM Tris/HCl, pH 8, 20% glycerol). The following model peptide substrates, releasing fluorescent 7-amino-4-methylcoumarin (AMC) reporter group after cleavage, were used: succinyl-LeuLeuValTyr-AMC (SEQ ID NO: 14) (for the ChT-L peptidase; SucLLVY-AMC; Bachem Bioscience Inc., Philadelphia, Pa.), butoxycarbonyl-LeuArgArg-AMC (T-L; Bachem Bioscience Inc., Philadelphia, Pa.) and carbobenzoxy-LeuLeuGlu-AMC (PGPH; Enzo Life Sciences Inc., Farmingdale, N.Y.). The substrates were used at concentration of 50 μM (ChT-L) or 100 μM (T-L, PGPH). Free AMC (Sigma-Aldrich, St. Louis, Mo.) was used as the standard. […] The TAT peptides, Rpt peptides (except Rpt6) and the peptide substrates were dissolved in anhydrous dimethylsulfoxide (DMSO; Sigma-Aldrich, St. Louis, Mo.) and such stock solutions were stored at −20° C. The total concentration of DMSO in final reaction mixtures never exceeded 3% (vol/vol). The Trp (tryptophan)-containing Rpt6 peptide was dissolved in ultrapure water and stored at −20° C., protected from light. The reaction was carried out in 96-well plates, in 100 μL of reaction mixture that consisted of 45 mM Tris/HCl, pH 8, 100 mM KCl, 1 mM EDTA (reaction buffer) and a fluorogenic peptide substrate, to which 200 ng (nearly […]) of proteasome were added. […] The proteasome was preincubated with a substrate for 10 min at room temperature, then 1 μL of DMSO or a desired concentration of a TAT peptide in 1 μL of DMSO were added. After mixing, the plate was transferred to a Fluoroskan Ascent plate reader (Thermo Fisher Scientific Inc., Waltham, Mass.) for 1 h (37° C.), with fluorescence readouts once per minute. To test the competition with Rpt derived peptides, the Rpt peptide (1 μM) was added before the TAT peptide to the reaction mixture. The reaction rates were calculated from a linear segment of kinetic curves constructed from measurements in 1-min intervals. Reaction rates were calculated using a linear fit performed with the Slope Analyser and Enzyme Kinetics applications launched within Origin Pro 2019 (OriginLab Corporation, Northampton, Mass.). […] The data are presented as mean±SD from at least three independent experiments.
Statistical Analysis. Experiments were performed at least in three independent replicates. The results are presented as a mean±SD. A two-tailed t-test was applied to compare the means. The comparisons were allowing for unequal variances with a Welch correction. Abundance of proteasome conformers was compared with the chi squared test and two-sample proportion test. A significance level was set at 0.05. Statistical analysis was performed using statistical procedures offered by OriginPro 2019 (OriginLabs, Northampton, Mass.). Reaction rates were calculated from a smoothed linear segment of kinetic traces using OriginPro 2019. Response curves (activity vs. compound concentration) were fitted with a nonlinear fitting application of OriginPro 2019. The AC50 and maximum activation fold was calculated based on the equations implemented to fit the response curves.

SMILES | effect on trypsin-like (T-L) activity [1] | AC50 ([2]; 20S proteasome AC50, Table 1, ChT-L activity, Suc-LLVY-MCA, purified human housekeeping 20S) | AC50 ([2]; AC50 [nM] ± SE, Table 3, purified 20S proteasome in Tris/HCl buffer pH 8, ChT-L model substrate) | activation of ChT-L activity of 20S proteasome (in words) [2] | activation of ChT-L activity of 20S proteasome (in words) ([2]; listed as Tat1-Den) | activation of ChT-L activity of 20S proteasome (in words) ([2]; listed as Tat-Den)
N=C(N)NCCCC(NC(=O)CN)C(=O)NC(CCCCN)C(=O)NC(CCCCN)C(=O)NC(CCCNC(=N)N)C(=O)NC(CCCNC(=N)N)C(=O)NC(CCC(N)=O)C(=O)N1Cc2ccccc2C[C@H]1C(=O)N1C(C(=O)NC(CCCNC(N)N)C(=O)N2CCCC2C(=O)NC(CO)C(=O)O)CC2CCCCC21 (some centres unmarked) [(5), GRKKRRQ-TOD-RPS] | weak inhibitory effects; also recorded: did not seem to significantly affect | 221 nM | 220 ± 89 nM | strongly enhance | – | –
NCCCCC(N)C(=O)NC(CCCCN)C(=O)NC(CCCCN)C(=O)Nc1cc(NC(=O)C(CCCCN)NC(=O)C(CCCCN)NC(=O)C(N)CCCCN)cc(C(=O)NC(CCCCN)C(=O)NC(CCCCN)C(=O)NC(CCCCN)C(=O)O)c1 (centres unmarked) [(8)] | weak inhibitory effects; also recorded: did not seem to significantly affect | – | – | one of the highest activation folds for the 20S core and one of the lowest AC50; also recorded: highest fold of activation potential and a low AC50 | one of the best proteasome activators | strongly enhance
